Columns and labels:
[1] = system: full length AR mRNA; test: Full-length AR RNA in VCaP cells (complete, CSS+DHT medium); format: cell-based, human; details: RNAiMax, 48 hrs
Protocol: Cells were plated at 10,000 cells per well. […] After an incubation period of 48 hrs, RNA levels of full length AR, the V7 variant, PSA and TMPRSS2 were measured.
After an incubation period of 48 hrs, RNA levels of full length AR, the V7 variant, PSA and TMPRSS2 were measured. The data is presented in Tables 108 expressed as percent expression of gene levels compared to the untreated control.
Cells were plated at 15,000 cells per well and cultured in CSS media for 16 hours. […] After 4 hrs, 1 nM DHT was added. […] After an incubation period of 48 hrs, RNA levels of AR, PSA and TMPRSS2 were measured.

[2] = system: LNCaP cells; test: LNCaP cell proliferation, ASO in combination with MDV3100 (Example 20); format: cell-based, human; details: for Proliferation (% untreated control) in LNCaP without MDV-3100: 5 days
Protocol: LNCaP cells were plated at 1,000 cells per well. […] ISIS 549148 was included as a negative control. […] After a treatment period of 5 days, the proliferative capacity of the cancer cells was measured with CellTiter 96® AQueous One or CellTiter-Glo® Solution Cell Proliferation kit (Promega), following the manufacturer's instructions. […]

[3] = system: LMR20 cells; test: Proliferation of MDV3100-resistant LMR20 cells (MTT; with R1881 or DHT); format: cell-based, human; details: 5 days
Protocol: LMR20 cells were plated at 1,500 cells per well in phenol red-free medium with charcoal-stripped fetal bovine serum (CSS), to remove any androgens from the medium (Life Technologies). […] The synthetic androgen agonist, R1881, (Takeda, A. N. et al., Mol. Pharmacol. 2007. 71: 473-82) was added on day 1 at 1 nM dose to a set of cells also treated with each of the antisense oligonucleotides. DHT was added on day 1 at a dose of 10 nM to another set of cells also treated with each of the antisense oligonucleotides. […] After a treatment period of 5 days, the proliferative ability of the cancer cells was measured by the standard MTT assay. Results are presented in Table 42 as percent inhibition of proliferation, relative to non-treated cells.

[4] = system: MDA-MB-453 tumor; test: Tumor volume in MDA-MB-453 breast cancer orthotopic model; format: in vivo, NSG mice; details: Study 2, MDA-MB-453 model, NSG mice, 50 mg/kg s.c. 5 days per week for 2 weeks
[5] = system: PSA mRNA; test: PSA expression in LNCaP cells (complete, CSS+DHT medium); format: cell-based, human; details: for Percent inhibition of PSA expression in LNCaP cells cultured in CSS + DHT medium: CSS + DHT (1 nM) medium, 48 hrs; for Percent inhibition of PSA expression in LNCaP cells cultured in complete medium: 48 hours
Protocol: Cells were plated at 1,000 cells per well. […] ISIS 549148 was included as a negative control. […] After an incubation period of 48 hours, RNA levels of AR, PSA and TMPRSS2 were measured.
Cells were plated at 2,000 cells per well and cultured in phenol red-free RPMI supplemented with 5% charcoal stripped serum (Gibco) media for 16 hours. […] ISIS 549148 was included as a negative control. […] After an incubation period of 4 hrs, DHT was added to the medium to a final concentration of 1 nM as indicated. RNAs were collected 48 hrs later and levels of AR, PSA and TMPRSS2 were measured. In the absence of DHT, AR expression in LNCaP cells was 95%, PSA expression was 7% and TMPRSS2 expression was 24% compared to the untreated control.

TTGATTTAATGGTTGC [ISIS 560131] (MOE and (S)-cEt gapmer chemistry, further chemistry not given here) [targets intron 1]
Percent inhibition of full-length AR ([1]; CSS medium, 1.34 nM): 12%
Percent inhibition of full-length AR ([1]; CSS medium, 4.0 nM): 16%
Percent inhibition of full-length AR ([1]; CSS medium, 13.4 nM): 37%
Percent inhibition of full-length AR ([1]; CSS medium, 40 nM): 38%
Percent inhibition of full-length AR ([1]; complete medium, 1.34 nM): 0%
Percent inhibition of full-length AR ([1]; complete medium, 4.0 nM): 59%
Percent inhibition of full-length AR ([1]; complete medium, 13.4 nM): 77%
Percent inhibition of full-length AR ([1]; complete medium, 40 nM): 84%
Proliferation (% untreated control) in LNCaP with 0.08 μM MDV-3100 ([2]; ASO dose 0.04 μM + 0.08 μM MDV-3100): 59 % untreated control
Proliferation (% untreated control) in LNCaP with 0.4 μM MDV-3100 ([2]; ASO dose 0.04 μM + 0.4 μM MDV-3100): 50 % untreated control
Proliferation (% untreated control) in LNCaP with 2.0 μM MDV-3100 ([2]; ASO dose 0.04 μM + 2.0 μM MDV-3100): 42 % untreated control
Proliferation (% untreated control) in LNCaP with […] MDV-3100 ([2]; ASO dose 0.04 μM + […] MDV-3100): 71 % untreated control
Proliferation (% untreated control) in LNCaP without MDV-3100 ([2]; ASO dose 0.04 μM): 76 % untreated control
Proliferation (% untreated control) in LNCaP with 0.08 μM MDV-3100 ([2]; ASO dose 0.08 μM + 0.08 μM MDV-3100): 99 % untreated control
Proliferation (% untreated control) in LNCaP with 0.4 μM MDV-3100 ([2]; ASO dose 0.08 μM + 0.4 μM MDV-3100): 68 % untreated control
Proliferation (% untreated control) in LNCaP with 2.0 μM MDV-3100 ([2]; ASO dose 0.08 μM + 2.0 μM MDV-3100): 45 % untreated control
Proliferation (% untreated control) in LNCaP with […] MDV-3100 ([2]; ASO dose 0.08 μM + […] MDV-3100): 103 % untreated control
Proliferation (% untreated control) in LNCaP without MDV-3100 ([2]; ASO dose 0.08 μM): 106 % untreated control
Proliferation (% untreated control) in LNCaP with 0.08 μM MDV-3100 ([2]; ASO dose 0.2 μM + 0.08 μM MDV-3100): 48 % untreated control
Proliferation (% untreated control) in LNCaP with 0.4 μM MDV-3100 ([2]; ASO dose 0.2 μM + 0.4 μM MDV-3100): 40 % untreated control
Proliferation (% untreated control) in LNCaP with 2.0 μM MDV-3100 ([2]; ASO dose 0.2 μM + 2.0 μM MDV-3100): 38 % untreated control
Proliferation (% untreated control) in LNCaP with […] MDV-3100 ([2]; ASO dose 0.2 μM + […] MDV-3100): 49 % untreated control
Proliferation (% untreated control) in LNCaP without MDV-3100 ([2]; ASO dose 0.2 μM): 50 % untreated control
Proliferation (% untreated control) in LNCaP with 0.08 μM MDV-3100 ([2]; ASO dose 1.0 μM + 0.08 μM MDV-3100): 27 % untreated control
Proliferation (% untreated control) in LNCaP with 0.4 μM MDV-3100 ([2]; ASO dose 1.0 μM + 0.4 μM MDV-3100): 26 % untreated control
Proliferation (% untreated control) in LNCaP with 2.0 μM MDV-3100 ([2]; ASO dose 1.0 μM + 2.0 μM MDV-3100): 23 % untreated control
Proliferation (% untreated control) in LNCaP with […] MDV-3100 ([2]; ASO dose 1.0 μM + […] MDV-3100): 25 % untreated control
Proliferation (% untreated control) in LNCaP without MDV-3100 ([2]; ASO dose 1.0 μM): 26 % untreated control
synergy with MDV3100 ([2]; LNCaP cells): synergistic with MDV3100
cell proliferation inhibited, combination ([2]; LNCaP cells, 0.04 μM ASO in combination with 0.08 μM MDV3100): 41%
inhibited cell proliferation, ASO alone ([2]; LNCaP cells, ASO alone at 0.04 μM): 24%
Percent inhibition of LMR20 cell proliferation ([3]; CSS + DHT, ASO 0.04 μM): 0%
Percent inhibition of LMR20 cell proliferation ([3]; CSS + DHT, ASO 0.20 μM): 13%
Percent inhibition of LMR20 cell proliferation ([3]; CSS + DHT, ASO 1.0 μM): 57%
Percent inhibition of LMR20 cell proliferation ([3]; CSS + DHT, ASO 5.0 μM): 71%
Percent inhibition of LMR20 cell proliferation ([3]; CSS + R1881, ASO 0.04 μM): 0%
Percent inhibition of LMR20 cell proliferation ([3]; CSS + R1881, ASO 0.20 μM): 13%
Percent inhibition of LMR20 cell proliferation ([3]; CSS + R1881, ASO 1.0 μM): 55%
Percent inhibition of LMR20 cell proliferation ([3]; CSS + R1881, ASO 5.0 μM): 70%
Percent inhibition of LMR20 cell proliferation ([3]; CSS, ASO 0.04 μM): 0%
Percent inhibition of LMR20 cell proliferation ([3]; CSS, ASO 0.20 μM): 0%
Percent inhibition of LMR20 cell proliferation ([3]; CSS, ASO 1.0 μM): 9%
Percent inhibition of LMR20 cell proliferation ([3]; CSS, ASO 5.0 μM): 16%
LMR20 cell proliferation ([3]; in the presence of R1881 or DHT, 0.04-5.0 μM): significantly inhibited MDV3100-resistant prostate cancer cell proliferation in a dose dependent manner more extensively than ISIS 554221
Tumor volumes ([4]; Day 0): 144
Tumor volumes ([4]; Day 8): 261
Tumor volumes ([4]; Day 13): 243
Tumor volumes ([4]; Day 20): 204
Tumor volumes ([4]; Day 23): 232
Tumor volumes ([4]; Day 27): 233
Tumor volumes ([4]; Day 29): 258
Percent inhibition of PSA expression in LNCaP cells cultured in CSS + DHT medium ([5]; 0.04 μM): 10%
Percent inhibition of PSA expression in LNCaP cells cultured in CSS + DHT medium ([5]; 0.2 μM): 21%
Percent inhibition of PSA expression in LNCaP cells cultured in CSS + DHT medium ([5]; 1 μM): 21%
Percent inhibition of PSA expression in LNCaP cells cultured in CSS + DHT medium ([5]; 5.0 μM): 72%
Percent inhibition of PSA expression in LNCaP cells cultured in complete medium ([5]; 0.04 μM): 0%
Percent inhibition of PSA expression in LNCaP cells cultured in complete medium ([5]; 0.2 μM): 60%
Percent inhibition of PSA expression in LNCaP cells cultured in complete medium ([5]; 1 μM): 87%
Percent inhibition of PSA expression in LNCaP cells cultured in complete medium ([5]; 5.0 μM): 90%
